# What was measured:
# SK-MEL-28 melanoma cells = test: Western Blot of protein expression; type: cell-based
# Procedure: FIG. 2A and FIG. 2B show the expression of isocitrate dehydrogenase (IDH-1) in SK-MEL-28 melanoma cells treated with increasing concentration of Coenzyme Q10 (50 μM or 100 μM).
# (§1) FIG. 3A and FIG. 3B show the effect of Coenzyme Q10 treatment (50 μM or 100 μM) on expression of ATP Citrate lyase (ACL) in SK-MEL-28 melanoma cells. Human aortic smooth muscle cells (HASMC) were used as a control.
# FIG. 4A and FIG. 4B show the effect of Coenzyme Q10 on expression of p53, pl4ARF and MDM2 in SK-MEL-28 melanoma cells.
# Bcl-2, Bax and Caspase 3 are pro- and anti-apoptotic markers regulating cell death pathways. A beta-actin loading control was used.
# IL6 = test: Upregulation of inflammatory cytokines after topical CoQ10; conditions: topical application
# adult fibroblasts = test: Cell proliferation with increasing Coenzyme Q10 concentration; type: cell-based, human; conditions: normal fibroblasts, increasing concentration (FIG. 1)
# Text: (§2) When applied topically to melanoma tumors in nude mice, a 1.0% CoQ10 formulation inhibited growth and angiogenesis. The mechanism involves the shifting of the cellular bioenergetics from cytoplasmic glycolysis towards mitochondrial oxidative phosphorylation (AACR 2011). The shift in cellular metabolic pathways in cancer including SCC and melanoma results in the recapitulation of the p53 regulated apoptotic potential by re-establishing the balance of pro-apoptic Bcl-2/Bax ratios in a manner conducive for cell death.
# [1] = Heat stability of CoQ10 solubilized in Polysorbate 80; type: physicochemical; conditions: 25-60% CoQ10 solubilized in Polysorbate 80, heated for several hours at 55° C.
# Procedure: Coenzyme Q10 […] is a deep yellow-orange powder and is very hydrophobic with a melting point of approximately 48 degrees centigrade. The active ingredient, CoQ10 […] Cream, ubidecarenone, USP may be adversely affected by heat and light, according to the literature. […] Heating the mixture to 50-55° C. (i.e., 2-7° C. above the melting point of CoQ10) greatly speeds the solubilization of CoQ10. To manufacture the topical CoQ10 cream, two CoQ10 concentrate phases (CoQ10/Polysorbate 80 and water-lecithin-glycol-phenoxyethanol) were each heated separately to 50-55° C. with the water phase added to the solubilized CoQ10 and were mixed with high shear homogenization to form a microemulsion concentrate of CoQ10. The CoQ10 concentrate was then added to a water-in-oil (W/O) cream emulsion base to produce the final CoQ10 cream. The final concentration of CoQ10 in the cream was 3.0%. The CoQ10 3% cream is further described in International Publication No. WO2008/116135, the entire content of which is incorporated by reference in its entirety herein.
# SCC cell line (SCC-25) = test: Proteomic analysis of SCC cell line; type: cell-based; conditions: 100 uM CoQ10, SCC-25
# Procedure: Next, a proteomic analysis of an in-vitro model of squamous cell carcinoma, SCC cell line (SCC-25), was undertaken to delineate the underlying mechanistic regulating effect of the CoQ10 compositions of the invention. Table 1, shown above and reproduced below, lists the proteins identified to have a differential response to 100 uM CoQ10 treatment in SCC cells at 6 and 24 hours.
# [2] = tested on: normal human keratinocytes; test: Cell proliferation with increasing Coenzyme Q10 concentration; type: cell-based; conditions: increasing concentration (FIG. 1)
# Text: as §2
# [3] = tested on: melanoma (SK-MEL-28) cell line; test: as above; type: cell-based; conditions: SK-MEL-28, increasing concentration (FIG. 1)
# Text: as §2
# [4] = tested on: squamous cell carcinoma (SCC-25) cell line; test: as above; type: cell-based; conditions: SCC-25, increasing concentration (FIG. 1)
# Text: as §2
# SCC cells = test: Apoptosis Array gene regulation; type: cell-based; conditions: 100 uM Q10, SCC cells
# Procedure: Table 3, shown above and reproduced below, lists the genes in SCC cells that are regulated by 100 uM Q10 treatment when analyzed by the Apoptosis Array.
# [5] = tested on: Human aortic smooth muscle cells (HASMC); test: Western Blot of ACL expression in normal control cells; type: cell-based; conditions: 50 μM or 100 μM
# Procedure: as §1
# [6] = SK-MEL-28, 50 μM or 100 μM for 12 or 24 hours
# [7] = direction: Decrease, at 6 and 24 hr
# [8] = direction: Decrease, at 24 hr only
# [9] = direction: Increase, at 6 and 24 hr
smiles,measurement,setting,value
"COC1=C(OC)C(=O)C(C/C=C(\C)CC/C=C(\C)CC/C=C(\C)CC/C=C(\C)CC/C=C(\C)CC/C=C(\C)CC/C=C(\C)CC/C=C(\C)CC/C=C(\C)CCC=C(C)C)=C(C)C1=O [CoQ10, Coenzyme Q10]",expression of MDM2,SK-MEL-28 melanoma cells; SK-MEL-28 (FIG. 4),decrease
same,expression of ATP Citrate lyase (ACL),"SK-MEL-28 melanoma cells; SK-MEL-28, 50 μM or 100 μM",concentration dependent decrease
same,expression of isocitrate dehydrogenase (IDH-1),"SK-MEL-28 melanoma cells; SK-MEL-28, 50 μM or 100 μM",concentration dependent increase
same,expression of anti-apoptotic bcl-2 protein,SK-MEL-28 melanoma cells; [6],concentration dependent decrease
same,expression of caspase 3,SK-MEL-28 melanoma cells; [6],progressive dose-dependent increase
same,expression of pro-apoptotic bax,SK-MEL-28 melanoma cells; [6],concentration dependent increase
same,upregulation of inflammatory cytokines (IL6),IL6,block the upregulation
same,cell proliferation rate,adult fibroblasts,no effect
same,breakdown of CoQ10 on heating,[1],no measurable breakdown
same,NM23 protein (NME1) Response,SCC cell line (SCC-25); at 24 hr,decrease at 24 hr
same,Keratin 1 (KRT1) Response (fold change),SCC cell line (SCC-25); [7],Decrease (2.3) at 6 and 24 hr fold change
same,Transaldolase 1 (TALDO1) Response (fold change),SCC cell line (SCC-25); [7],Decrease (1.5) at 6 and 24 hr fold change
same,Rho GDP dissociation inhibitor (GDI) alpha (ARHGDIA) Response (fold change),"SCC cell line (SCC-25); direction: Decrease, at 6 hr only",Decrease (1.5) at 6 hr only fold change
same,Proteasome activator subunit 3 (PSME3) Response (fold change),SCC cell line (SCC-25); [8],Decrease (1.3) at 24 hr only fold change
same,Protessome Beta 7 (PSMB7) Response (fold change),SCC cell line (SCC-25); [8],Decrease (1.6) at 24 hr only fold change
same,Heat shock 27 kDa protein 1 (HSPB1) Response (fold change),SCC cell line (SCC-25); [9],Increase (−1.9) at 6 and 24 hr fold change
same,Keratin 13 (KRT13) Response (fold change),SCC cell line (SCC-25); [9],Increase (−1.5) at 6 and 24 hr fold change
same,Keratin 14 (KRT14) Response (fold change),SCC cell line (SCC-25); [9],Increase (−1.6) at 6 and 24 hr fold change
same,NM23 protein (NME1) Response (fold change),"SCC cell line (SCC-25); printed direction: increase, at 6 hr","increase (−1.2) at 6 hr, fold change"
same,cell proliferation rate,[2],no effect
same,cell proliferation rate,[3],dose dependent decrease
same,cell proliferation rate,[3]; listed as Coenzyme Q10,concentration dependent decrease
same,cell proliferation rate,[4],dose dependent decrease
same,cell proliferation rate,[4]; listed as Coenzyme Q10,concentration dependent decrease
same,BCL2L1 gene Regulation,SCC cells; 6 hours,Down regulated at 6 hours and
same,CARD6 gene Regulation,SCC cells; 6 hours,Down regulated at 6 hours.
same,AKT1 gene Regulation,SCC cells; 24 hours,then up regulated at 24 hours.
same,BAG4 gene Regulation,SCC cells; 24 hours,Up regulated at 24 hours.
same,BAX gene Regulation,SCC cells; 24 hours,Up regulated at 24 hours.
same,BCL2L1 gene Regulation,SCC cells; 24 hours,then up regulated at 24 hours.
same,BNIP3 gene Regulation,SCC cells; 24 hours,Down regulated at 24 hours.
same,CASP6 gene Regulation,SCC cells; 24 hours,Up regulated at 24 hours.
same,CASP7 gene Regulation,SCC cells; 24 hours,Up regulated at 24 hours.
same,GADD45A gene Regulation,SCC cells; 24 hours,Up regulated at 24 hours.
same,TP53 gene Regulation,SCC cells; 24 hours,Up regulated at 24 hours.
same,TP73 gene Regulation,SCC cells; 24 hours,then up regulated at 24 hours.
same,expression of ATP Citrate lyase (ACL),[5],not observed

# Source: US12616666B2, “Coenzyme Q10 formulations in the treatment and prevention of epidermolysis bullosa” (BPGbio, Inc., priority 2017, dated 2026)
